We go through one molecule from patent US9439915B2, “Activated nitric oxide donors and methods of making and using thereof” (University of Utah Research Foundation, priority 2008, dated 2016).

For data set [1], the system named is HL-60 cells. Briefly: In vivo anti-leukemic activity, HL-60 flank tumors. Set-up: species or system NOD/SCID IL2Rγ^null mice. As to conditions: 4 μmol/kg intravenously 3 times per week; p=0.01 by F-test. The text has this: This example illustrates the in vivo anti-leukemic activity of JS-K in Pluronic® micelles. NOD/SCID IL2Rγ^null mice were inoculated with 5×10^6 HL-60 cells in each flank. […] The proportion of JS-K to Pluronic® polymer in solution was 2.0% by weight. Injections were given 3 times per week intravenously. The dose of free and micelle-formulated JS-K was 4 μmol/kg. […] A linear mixed model using SAS PROC MIXED was fit to the data in FIG. 8, using a random effect to account for correlation among measurements within the same animal.

Data set [2] can be described thus: Effect on systemic blood pressure (tail cuff). The conditions noted are these: 5 μmol/kg intravenous, awake mice, up to 2 hours. Type of data set: in vivo, NOD/SCID and NOD/SCID IL2Rγ^null mice. The text has this:
This example illustrates the effect of JS-K in Pluronic® micelles on systemic blood pressure. […] The proportion of JS-K to Pluronic® polymer in solution was 1.53% by weight.
Awake, unanesthetized NOD/SCID and NOD/SCID IL2Rγ^null mice were used for these experiments.

Data set [3] can be described thus: Stability in pooled human plasma. Type of data set: in vitro ADME. As to conditions: 37° C., micelle 50, free 10 micromolar, average and SEM of 2.
Procedure: (§1) The stability of JS-K in different media in vitro was evaluated. […] Concentrations of JS-K in the different media were measured at intervals up to 60 minutes using High Pressure Liquid Chromatography (HPLC). Area Under the Curve (AUC) HPLC measurements were used to determine the half-life (T1/2) and percent recovery of JS-K in the different media.
The subject of data set [4] is HL-60 cells. Briefly: In vitro cytotoxicity, MTS assay. Type of data set: cell-based. How it is done: The in vitro cytotoxicity of JS-K in Pluronic® micelles was studied in this example. JS-K was loaded in F68, P105, or F127 Pluronic® micelles as described above. […] […] Similar control experiments were set-up with equivalent concentrations of each Pluronic® micelle without JS-K. After a 3 day incubation, cell growth was measured using the MTS assay. […] Equivalent empty micelles at equal concentrations (0.08% w/v) had no significant effect on cell growth (not shown).
In general terms: Tetrazolium assays rely on reduction of a dye to a coloured formazan, in cell work by metabolically active cells.

Data set [5] is described as follows: Dialysis retention of JS-K (loading in micelles). It counts as physicochemical. As to conditions: 2 hours of dialysis; JS-K levels by HPLC; JS-K to polymer 10% by weight. How it is done: This example illustrates the extent of JS-K loading in micelles. JS-K was loaded in Pluronic® P123 and L121 polymers to form micelles. The proportion of JS-K to Pluronic® polymer in solution was 10% by weight. The JS-K micelle preparations were then dialyzed for 2 hours. A parallel experiment following the same procedures with free JS-K was set up as a control. After 2 hours of dialysis, JS-K levels were measured by HPLC to estimate the percent of JS-K retained.

The nature of data set [6]: Stability in RPMI media with 10% Fetal Bovine Serum. Type of data set: in vitro ADME. As to conditions: RPMI/10% FBS, 37° C.; micelle 50, free 10 micromolar; average and SEM of 6.
Procedure: as §1

Molecules are shown by their SMILES.

Take `CCOC(=O)N1CCN(/[N+]([O-])=N/Oc2ccc([N+](=O)[O-])cc2[N+](=O)[O-])CC1` [free JS-K, O^2-(2,4-dinitrophenyl) 1-[(4-ethoxycarbonyl)piperazin-1-yl]diazen-1-ium-1,2-diolate]: the “rate of tumor growth, free vs micelle JS-K (linear mixed model)” value in the data set on HL-60 cells [1] is given as “significantly higher”. Also, in data set [2], the “sustained drop in systolic blood pressure” value is “around 20 % of baseline”. In addition, the “percent recovery after 60 minute incubation” value in data set [3] was 39+/−0%; in data set [6] it was 10.53+/−1.42%. The “inhibition of leukemia cell growth” value with HL-60 cells [4] (0.5 μM, 3 day incubation, MTS, JS-K to polymer 4% by weight) is 62%. Also, in the data set with HL-60 cells [4] (JS-K to polymer 1.97% by weight), the IC50 (as a rule, the point on the concentration scale where inhibition reaches its midpoint) came to 450 nM. In addition, the “Percent retention of JS-K after dialysis” value in data set [5] is 31%.
